Measurements published in US20100035866A1, “NOVEL SUBSTITUTED-1, 1-DIOXO-BENZO[1,2,4]THIADIAZIN-3ONES, PREPARATION METHOD THEREOF, AND PHARMACEUTICAL COMPOSITION CONTAINING THE SAME” (KOREA RESEARCH INSTITUTE OF CHEMICAL TECHNOLOGY, priority 2006, published 2010).

How the values were obtained:
5-HT2c = biological target: T1, 5-HT2c (Homo sapiens, UniProt P28335); test: Radioligand binding, 5-HT receptor family: 5-HT2c ([3H]Mesulergine); conditions: CHO-K1 human recombinant receptor, [3H]Mesulergine 1 nM; read-out: Binding affinity, IC50 (nM), 5-HT2c
T1 construct: purchased Euroscreen/BioSignal Packard Inc
T1 sequence (P28335 33-458): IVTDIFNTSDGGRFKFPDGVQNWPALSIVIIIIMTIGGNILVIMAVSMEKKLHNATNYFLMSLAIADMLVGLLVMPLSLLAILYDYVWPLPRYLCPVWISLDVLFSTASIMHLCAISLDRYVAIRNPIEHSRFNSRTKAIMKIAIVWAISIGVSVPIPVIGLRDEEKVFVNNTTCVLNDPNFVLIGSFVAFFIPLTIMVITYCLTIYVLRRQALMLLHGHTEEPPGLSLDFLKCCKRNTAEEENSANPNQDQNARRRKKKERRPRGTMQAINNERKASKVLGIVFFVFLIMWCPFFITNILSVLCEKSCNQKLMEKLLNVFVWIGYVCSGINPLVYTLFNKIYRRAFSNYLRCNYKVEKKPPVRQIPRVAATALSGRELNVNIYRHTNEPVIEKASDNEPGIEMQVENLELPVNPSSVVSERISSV

hD2L receptor = biological target: T2, hD2L receptor (Homo sapiens, UniProt P14416); test: Dopamine receptor family binding: D2 ([3H]spiperone); conditions: [3H]spiperone 1 nM; read-out: Binding affinity, IC50 (nM), D2
T2 construct: purchased BioSignal Packard Inc., Montreal, Canada
Procedure: (§1) 2-2: Binding Assays of Dopamine Receptor Family
(§2) The radioligands used were [^3H]spiperone (for hD2L and hD3 receptors, 1 nM) and [^3H] YM-09151-2 (for hD4.2 receptor, 0.06 nM). Radioligand bindings were performed by the protocols provided by the supplier of receptor membranes (BioSignal Packard Inc., Montreal, Canada). Briefly, the buffer used in D2 or D3 receptor binding assay was 50 mM Tris-HCl (pH 7.4), 10 mM MgCl2, 1 mM EDTA, or 50 mM Tris-HCl (pH 7.4), 5 mM MgCl2 5 mM EDTA, 5 mM KCl, 1.5 mM CaCl2, 120 mM NaCl, respectively. In [^3H] YM-09151-2 receptor binding assays, the buffer containing 50 mM Tris-HCl (pH 7.4), 5 mM MgCl2, 5 mM EDTA, 5 mM KCl and 1.5 mM CaCl2 was used. […] Competition binding studies were carried out with 7-8 concentrations of the test compound run in duplicate tubes, and isotherms from three assays were calculated by computerized nonlinear regression analysis (GraphPad Prism Program, San Diego, […]) to yield median inhibitory concentration (IC50) values.

5-HT1a = biological target: T3, 5-HT1a (Homo sapiens, UniProt P08908); test: Radioligand binding, 5-HT receptor family: 5-HT1a ([3H]8-OH-DPAT); conditions: CHO-K1 human recombinant receptor, [3H]8-OH-DPAT 0.5 nM; read-out: Binding affinity, IC50 (nM), 5-HT1a
T3 construct: purchased Euroscreen/BioSignal Packard Inc
T3 sequence (P08908 1-422): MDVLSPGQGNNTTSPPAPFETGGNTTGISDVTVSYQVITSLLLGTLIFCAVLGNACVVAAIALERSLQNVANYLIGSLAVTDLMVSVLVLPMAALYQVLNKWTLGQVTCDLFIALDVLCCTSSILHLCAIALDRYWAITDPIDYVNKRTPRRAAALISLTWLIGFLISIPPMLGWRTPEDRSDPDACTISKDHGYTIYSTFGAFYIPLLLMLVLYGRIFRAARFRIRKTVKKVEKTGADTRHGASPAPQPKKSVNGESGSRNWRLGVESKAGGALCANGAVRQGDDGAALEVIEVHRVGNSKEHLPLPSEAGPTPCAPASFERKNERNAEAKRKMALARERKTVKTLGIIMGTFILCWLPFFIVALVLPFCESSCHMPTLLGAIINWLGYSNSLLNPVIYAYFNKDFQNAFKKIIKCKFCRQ

5-HT7 = biological target: T4, 5-HT7 (Homo sapiens, UniProt P34969); test: Radioligand binding, 5-HT receptor family: 5-HT7 ([3H]LSD); conditions: CHO-K1 human recombinant receptor, [3H]LSD 3 nM; read-out: Binding affinity, IC50 (nM), 5-HT7
T4 construct: purchased Euroscreen/BioSignal Packard Inc
Procedure: Radioligand bindings were performed according to the test method provided by the supplier of receptor membrane (Euroscreen/BioSignal Packard Inc.). The detailed assay conditions and the results were shown in the following Table 3 and Table 4, respectively.

hD3 receptor = biological target: T5, hD3 receptor (Homo sapiens, UniProt P35462); test: Dopamine receptor family binding: D3 ([3H]spiperone); conditions: [3H]spiperone 1 nM; read-out: Binding affinity, IC50 (nM), D3
T5 construct: purchased BioSignal Packard Inc., Montreal, Canada

D1 = D1 (Homo sapiens, UniProt P21728); test: Dopamine receptor family binding: D1; conditions: read-out: Binding affinity, IC50 (nM), D1
[1] = biological target: Human serotonin 5-HT6 receptor (Homo sapiens, UniProt P50406); test: [3H]LSD binding assay on cloned 5-HT6 receptor; conditions: IC50 (nM)
5-HT2a = biological target: T6, 5-HT2a (Homo sapiens, UniProt P28223); test: Radioligand binding, 5-HT receptor family: 5-HT2a ([3H]Ketanserin); conditions: CHO-K1 human recombinant receptor, [3H]Ketanserin 1 nM; read-out: Binding affinity, IC50 (nM), 5-HT2a
T6 construct: purchased Euroscreen/BioSignal Packard Inc

hD4.2 receptor = biological target: T7, hD4.2 receptor (Homo sapiens, UniProt P21917, DEL265-296); test: Dopamine receptor family binding: D4 ([3H]YM-09151-2); conditions: [3H]YM-09151-2 0.06 nM; read-out: Binding affinity, IC50 (nM), D4
T7 construct: purchased BioSignal Packard Inc., Montreal, Canada
T7 sequence (P21917 with tags, fused parts or gaps DEL265-296): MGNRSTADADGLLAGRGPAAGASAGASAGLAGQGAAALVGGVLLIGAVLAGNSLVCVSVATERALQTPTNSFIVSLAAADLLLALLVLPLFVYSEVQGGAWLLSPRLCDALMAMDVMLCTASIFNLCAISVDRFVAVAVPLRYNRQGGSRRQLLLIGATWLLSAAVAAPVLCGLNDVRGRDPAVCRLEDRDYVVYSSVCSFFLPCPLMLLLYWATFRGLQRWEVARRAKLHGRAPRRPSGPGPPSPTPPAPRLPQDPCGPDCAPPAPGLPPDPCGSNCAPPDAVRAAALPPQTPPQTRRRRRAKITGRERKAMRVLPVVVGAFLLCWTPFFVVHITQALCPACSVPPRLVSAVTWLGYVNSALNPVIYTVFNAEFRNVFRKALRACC
Procedure: as §1, §2

rats [2] = conditions: cited from earlier work
[3] = background art; cited from earlier work
rat = conditions: oral administration; cited from earlier work
rats [4] = test: Apomorphine-induced disruption of prepulse inhibition (PPI) of acoustic startle
mice = test: Rotarod deficit; conditions: mouse, in vivo
Procedure: The mouse was placed on a 1 inch diameter knurled plastic rod rotating at 6 rpm (Ugo-Basile, Milano, Italy), and the rotarod deficit (%) was obtained by counting the number of animals fallen from the rotating rod within 1 min (Dunham et al., 1957) at 30, 60, 90 and 120 min after the injection of test compound.

[5] = Binding affinity, 5-HT6, Table 4
[6] = binding affinity to the 5-HT6 receptor, Table 2, 1.87 nM [3H]LSD, cloned human receptor membranes from Sf21 cells, 37° C. 60 min

Human serotonin 5-HT6 receptor, sequence (P50406 whole entry): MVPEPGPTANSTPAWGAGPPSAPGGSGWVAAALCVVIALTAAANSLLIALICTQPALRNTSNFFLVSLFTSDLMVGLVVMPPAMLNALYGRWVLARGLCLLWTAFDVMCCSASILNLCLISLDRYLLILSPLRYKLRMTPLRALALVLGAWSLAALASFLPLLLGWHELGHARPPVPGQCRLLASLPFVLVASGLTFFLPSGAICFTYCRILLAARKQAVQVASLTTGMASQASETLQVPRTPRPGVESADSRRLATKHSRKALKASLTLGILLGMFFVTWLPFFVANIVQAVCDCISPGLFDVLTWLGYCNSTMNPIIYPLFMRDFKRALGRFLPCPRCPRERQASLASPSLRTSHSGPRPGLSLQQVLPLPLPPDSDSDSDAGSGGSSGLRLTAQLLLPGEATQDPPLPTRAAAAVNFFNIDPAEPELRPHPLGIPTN
T6 sequence (P28223 whole entry): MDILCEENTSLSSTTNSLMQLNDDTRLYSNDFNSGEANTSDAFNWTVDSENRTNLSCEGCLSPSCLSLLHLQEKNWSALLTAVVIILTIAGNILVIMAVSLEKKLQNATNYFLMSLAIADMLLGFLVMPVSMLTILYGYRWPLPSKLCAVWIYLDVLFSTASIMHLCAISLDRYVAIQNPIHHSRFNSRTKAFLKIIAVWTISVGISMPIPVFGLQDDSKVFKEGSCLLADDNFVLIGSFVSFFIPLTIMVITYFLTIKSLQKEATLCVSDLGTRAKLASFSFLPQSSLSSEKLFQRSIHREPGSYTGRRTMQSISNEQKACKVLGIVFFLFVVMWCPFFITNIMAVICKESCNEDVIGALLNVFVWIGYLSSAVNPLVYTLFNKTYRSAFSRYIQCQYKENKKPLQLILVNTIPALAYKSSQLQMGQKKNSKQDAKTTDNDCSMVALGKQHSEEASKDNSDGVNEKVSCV
T5 sequence (P35462 whole entry): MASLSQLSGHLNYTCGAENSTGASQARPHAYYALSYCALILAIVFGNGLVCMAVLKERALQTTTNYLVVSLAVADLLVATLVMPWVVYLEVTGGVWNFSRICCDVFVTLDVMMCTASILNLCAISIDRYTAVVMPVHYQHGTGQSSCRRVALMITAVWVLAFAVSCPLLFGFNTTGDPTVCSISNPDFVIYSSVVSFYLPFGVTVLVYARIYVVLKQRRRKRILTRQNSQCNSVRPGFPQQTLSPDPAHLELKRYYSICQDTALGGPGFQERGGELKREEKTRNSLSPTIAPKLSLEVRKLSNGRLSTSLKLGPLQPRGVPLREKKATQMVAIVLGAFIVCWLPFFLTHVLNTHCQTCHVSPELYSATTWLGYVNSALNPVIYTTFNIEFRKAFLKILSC
T2 sequence (P14416 whole entry): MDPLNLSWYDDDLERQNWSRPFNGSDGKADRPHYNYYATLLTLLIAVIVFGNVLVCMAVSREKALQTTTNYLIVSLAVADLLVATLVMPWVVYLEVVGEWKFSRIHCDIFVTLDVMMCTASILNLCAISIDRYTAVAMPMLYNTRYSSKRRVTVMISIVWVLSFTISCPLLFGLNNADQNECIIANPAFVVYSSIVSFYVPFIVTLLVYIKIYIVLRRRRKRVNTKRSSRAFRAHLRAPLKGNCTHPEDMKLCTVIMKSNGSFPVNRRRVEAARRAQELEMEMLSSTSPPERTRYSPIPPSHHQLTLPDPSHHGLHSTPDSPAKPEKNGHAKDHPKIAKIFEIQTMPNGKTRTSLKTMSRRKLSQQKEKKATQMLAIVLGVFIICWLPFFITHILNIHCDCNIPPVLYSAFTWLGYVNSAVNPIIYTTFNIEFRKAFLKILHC
D1, sequence (P21728 whole entry): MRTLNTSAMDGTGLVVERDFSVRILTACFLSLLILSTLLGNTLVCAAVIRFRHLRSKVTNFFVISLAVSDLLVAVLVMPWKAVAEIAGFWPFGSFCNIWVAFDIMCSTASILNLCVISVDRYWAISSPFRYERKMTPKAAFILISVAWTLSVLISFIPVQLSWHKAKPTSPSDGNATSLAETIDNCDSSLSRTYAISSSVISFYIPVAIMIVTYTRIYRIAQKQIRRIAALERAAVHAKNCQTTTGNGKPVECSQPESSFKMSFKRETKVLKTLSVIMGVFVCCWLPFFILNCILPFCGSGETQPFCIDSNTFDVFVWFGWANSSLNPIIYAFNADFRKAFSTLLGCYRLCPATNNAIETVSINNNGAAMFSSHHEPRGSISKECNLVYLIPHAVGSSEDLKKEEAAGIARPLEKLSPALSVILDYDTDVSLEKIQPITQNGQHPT
T4 sequence (P34969 whole entry): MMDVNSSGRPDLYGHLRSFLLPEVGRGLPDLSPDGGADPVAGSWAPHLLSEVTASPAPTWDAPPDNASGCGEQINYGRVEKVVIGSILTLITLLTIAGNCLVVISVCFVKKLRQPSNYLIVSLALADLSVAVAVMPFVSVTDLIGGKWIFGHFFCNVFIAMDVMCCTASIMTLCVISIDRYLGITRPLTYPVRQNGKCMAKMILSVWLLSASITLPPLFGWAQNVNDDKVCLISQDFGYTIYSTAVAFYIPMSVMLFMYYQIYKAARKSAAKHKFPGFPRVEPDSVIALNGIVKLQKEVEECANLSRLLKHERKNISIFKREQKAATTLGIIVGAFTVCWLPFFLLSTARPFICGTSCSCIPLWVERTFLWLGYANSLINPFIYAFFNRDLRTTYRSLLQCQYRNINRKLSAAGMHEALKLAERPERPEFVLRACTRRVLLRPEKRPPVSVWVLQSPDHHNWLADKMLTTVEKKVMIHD

Row | SMILES | IC50 (5-HT2c) | IC50 (hD2L receptor) | IC50 (5-HT1a) | IC50 (5-HT7) | melting point | IC50 (hD3 receptor) | IC50 (D1) | IC50 [1, 5] | IC50 [1, 6] | IC50 (5-HT2a) | IC50 (hD4.2 receptor) | retention of a previously learned task in water maze (rats [2]) | bioavailability (in words) [3] | blood clearance (in words) [3] | seizure threshold (rat maximal electroseizure threshold) (rat) | effect on PPI of compound alone vs vehicle control (rats [4]; rats, 2.5, 5, 10 & 20 mg/kg, i.p., without apomorphine) | mean startle amplitude vs apomorphine control group (rats [4]; rats, administered 30 min before apomorphine) | reversal of disruption of PPI by apomorphine (rats [4]; rats, pretreatment i.p. 30 min before apomorphine 2 mg/kg, i.p.) | rotarod ataxia / rotarod deficit (in words) (mice) | median neurotoxic dose (TD50), rotarod (mice; ip)
1 | COc1cccc(CN2C(=O)N(Cc3ccccc3)c3cc(Cl)cc(N4CCNCC4)c3S2(=O)=O)c1 [Example 52, 4-Benzyl-6-chloro-2-(3-methoxy-benzyl)-1,1-dioxo-8-piperazin-1-yl-1,4-dihydro-2H-1λ^6-benzo[1,2,4]thiadiazin-3-one] | 1350 nM | 3220 nM | 1860 nM | 6780 nM | 98 to 100 °C | 531 nM | 3140 nM | 2 nM | 5.8 nM | 1000 nM | > 10000 nM | – | – | – | – | – | – | – | – | –
2 | COc1cccc(CN2C(=O)N(Cc3ccccc3)c3cc(Cl)cc(N4CCN(C)CC4)c3S2(=O)=O)c1 [Example 17, 4-Benzyl-6-chloro-2-(3-methoxy-benzyl)-8-(4-methyl-piperazin-1-yl)-1,1-dioxo-1,4-dihydro-2H-1λ^6-benzo[1,2,4]thiadiazin-3-one] | 899 nM | 4860 nM | 1950 nM | > 10000 nM | 85 to 86 °C | 537 nM | 4730 nM | 10.9 nM | 10.6 nM | 318 nM | > 10000 nM | – | – | – | – | – | – | – | – | –
3 | O=C1N(Cc2ccccc2)c2cc(Cl)cc(N3CCNCC3)c2S(=O)(=O)N1Cc1cccc(O)c1 [Example 54, 4-Benzyl-6-chloro-2-(3-hydroxy-benzyl)-1,1-dioxo-8-piperazin-1-yl-1,4-dihydro-2H-1λ^6-benzo[1,2,4]thiadiazin-3-one] | 1800 nM | 2280 nM | 621 nM | > 10000 nM | 230 to 231 °C | 804 nM | 4100 nM | 5.8 nM | 1 nM | 1150 nM | > 10000 nM | – | – | – | – | – | – | – | – | –
4 | COc1ccc(S(=O)(=O)Nc2cc(Br)cc(F)c2Br)cc1N1CCNCC1 [SB-357134] | – | – | – | – | – | – | – | – | – | – | – | significant improvement | excellent oral bioavailability | low clearance rate | potent and dose-dependent increase | – | – | – | – | –
5 | Cc1cc(C)cc(CCCN2C(=O)N(Cc3ccccc3)c3cc(Cl)cc(N4CCNCC4)c3S2(=O)=O)c1 [Example 66, 4-Benzyl-6-chloro-2-[3-(3,5-dimethyl-phenyl)-propyl]-1,1-dioxo-8-piperazin-1-yl-1,4-dihydro-2H-1λ^6-benzo[1,2,4]thiadiazin-3-one] | 498 nM | 1640 nM | 1840 nM | 4530 nM | 226 to 228 °C | 488 nM | 1180 nM | 3.8 nM | 3.8 nM | 710 nM | > 10000 nM | – | – | – | – | – | – | – | – | –
6 | CN1CCN(c2cc(Cl)cc3c2S(=O)(=O)N(Cc2ccccc2)C(=O)N3Cc2ccccc2)CC1 [Example 1, 2,4-Dibenzyl-6-chloro-8-(4-methyl-piperazin-1-yl)-1,1-dioxo-1,4-dihydro-2H-1λ^6-benzo[1,2,4]thiadiazin-3-one] | 785 nM | 5810 nM | 997 nM | 6580 nM | 100 to 101 °C | 633 nM | 3050 nM | 1.9 nM | 1.9 nM | 354 nM | > 10000 nM | – | – | – | – | no significant effect | no significant differences | reversed significantly | did not show any rotarod ataxia | more than 300 □/□
7 | C[C@H](c1ccccc1)N1C(=O)N(Cc2ccccc2)c2cc(Cl)cc(N3CCN(C)CC3)c2S1(=O)=O [Example 25, 4-Benzyl-6-chloro-8-(4-methyl-piperazin-1-yl)-1,1-dioxo-2-[(R)-1-phenyl-ethyl]-1,4-dihydro-2H-1λ^6-benzo[1,2,4]thiadiazin-3-one] | 691 nM | 1920 nM | > 10000 nM | 8560 nM | – | 265 nM | 963 nM | 1.1 nM | 1.1 nM | 350 nM | > 10000 nM | – | – | – | – | – | – | – | – | –
